According to US10385048B2, “Pesticidally active polycyclic derivatives with sulfur containing substituents” (Syngenta Participations AG, priority 2014, dated 2019):

How the values were obtained:
Assay type in all cases: in vivo
Spodoptera littoralis [1] = test: Spodoptera littoralis (Egyptian cotton leaf worm), uptake by lettuce roots from agar, eggs; settings: 144 h, test rate 12.5 ppm, lettuce root uptake, 6 days after infestation, read-out: effect in at least one of the three categories (mortality, anti-feeding, or growth inhibition)
Description: Example B9: Spodoptera littoralis (Egyptian Cotton Leaf Worm)
Test compounds were applied by pipette from 10′000 ppm DMSO stock solutions into 24-well plates and mixed with agar. Lettuce seeds were placed onto the agar and the multi well plate was closed by another plate which contained also agar. After 7 days the compound was absorbed by the roots and the lettuce grew into the lid plate. The lettuce leaves were then cut off into the lid plate. Spodoptera eggs were pipetted through a plastic stencil onto a humid gel blotting paper and the lid plate was closed with it. The samples were assessed for mortality, anti-feedant effect and growth inhibition in comparison to untreated samples 6 days after infestation.

[2] = test system: Frankliniella occidentalis; test: Frankliniella occidentalis (western flower thrips) feeding/contact activity, sunflower leaf discs; settings: foliar, 168 h, application rate 200 ppm, population of mixed ages, 7 days after infestation
Experimental: Example B4: Frankliniella occidentalis (Western Flower Thrips): Feeding/Contact Activity
Sunflower leaf discs were placed on agar in 24-well microtiter plates and sprayed with aqueous test solutions prepared from […] stock solutions. After drying the leaf discs were infested with a Frankliniella population of mixed ages. The samples were assessed for mortality 7 days after infestation.

Myzus persicae [3] = test: Myzus persicae (green peach aphid) systemic activity, pea seedling roots; settings: 144 h, test rate 24 ppm, 6 days after placing seedlings into test solutions
Bemisia tabaci = Bemisia tabaci (cotton white fly) feeding/contact activity, cotton leaf discs; settings: foliar, 144 h, application rate 200 ppm, adult white flies, 6 days after incubation
Experimental: Example B1: Bemisia tabaci (Cotton White Fly): Feeding/Contact Activity
Cotton leaf discs were placed on agar in 24-well microtiter plates and sprayed with aqueous test solutions prepared from 10′000 ppm DMSO stock solutions. After drying the leaf discs were infested with adult white flies. The samples were checked for mortality 6 days after incubation.

Spodoptera littoralis [4] = test: Spodoptera littoralis (Egyptian cotton leaf worm), cotton leaf discs, L1 larvae; settings: foliar, 72 h, application rate 200 ppm, L1 larvae on cotton leaf discs, 3 days after infestation
Experimental: Example B8: Spodoptera littoralis (Egyptian Cotton Leaf Worm)
Cotton leaf discs were placed onto agar in 24-well microtiter plates and sprayed with aqueous test solutions prepared from 10′000 ppm DMSO stock solutions. After drying the leaf discs were infested with five L1 larvae. The samples were assessed for mortality, anti-feeding effect, and growth inhibition in comparison to untreated samples 3 days after infestation. Control of Spodoptera littoralis by a test sample is given when at least one of the categories mortality, anti-feedant effect, and growth inhibition is higher than the untreated sample.

Euschistus heros = Euschistus heros (neotropical brown stink bug), soybean leaves, N2 nymphs; settings: 120 h, application rate 200 ppm, 5 days after infestation, read-out: effect in at least one of the two categories (mortality or growth inhibition)
Experimental: Example B3: Euschistus heros (Neotropical Brown Stink Bug)
Soybean leaves on agar in 24-well microtiter plates were sprayed with aqueous test solutions prepared from 10′000 ppm DMSO stock solutions. After drying the leaves were infested with N2 nymphs. The samples were assessed for mortality and growth inhibition in comparison to untreated samples 5 days after infestation.

Thrips tabaci = Thrips tabaci (onion thrips) feeding/contact activity, sunflower leaf discs; settings: foliar, 144 h, application rate 200 ppm, population of mixed ages, 6 days after infestation
Experimental: Example B11: Thrips tabaci (Onion Thrips) Feeding/Contact Activity
Sunflower leaf discs were placed on agar in 24-well microtiter plates and sprayed with aqueous test solutions prepared from 10′000 ppm DMSO stock solutions. After drying the leaf discs were infested with a thrips population of mixed ages. The samples were assessed for mortality 6 days after infestation.

Myzus persicae [5] = test: Myzus persicae (green peach aphid) feeding/contact activity, sunflower leaf discs; settings: foliar, 144 h, application rate 200 ppm, 6 days after infestation
Experimental: Example B5: Myzus persicae (Green Peach Aphid): Feeding/Contact Activity
Sunflower leaf discs were placed onto agar in a 24-well microtiter plate and sprayed with aqueous test solutions prepared from 10′000 ppm DMSO stock solutions. After drying, the leaf discs were infested with an aphid population of mixed ages. The samples were assessed for mortality 6 days after infestation.

Diabrotica Balteata = test: Diabrotica balteata (corn root worm), maize sprouts, L2 larvae; settings: 96 h, application rate 200 ppm, 4 days after infestation, read-out: effect in at least one of the two categories (mortality or growth inhibition)
Experimental: Example B2: Diabrotica Balteata (Corn Root Worm)
Maize sprouts placed onto an agar layer in 24-well microtiter plates were treated with aqueous test solutions prepared from 10′000 ppm DMSO stock solutions by spraying. After drying, the plates were infested with L2 larvae (6 to 10 per well). The samples were assessed for mortality and growth inhibition in comparison to untreated samples 4 days after infestation.

Plutella xylostella = Plutella xylostella (diamond back moth), artificial diet, L2 larvae; settings: 120 h, application rate 200 ppm, 5 days after infestation, read-out: effect in at least one of the two categories (mortality or growth inhibition)
Experimental: Example B7: Plutella xylostella (Diamond Back Moth)
24-well microtiter plates with artificial diet were treated with aqueous test solutions prepared from 10′000 ppm DMSO stock solutions by pipetting. After drying, the plates were infested with L2 larvae (10 to 15 per well). The samples were assessed for mortality and growth inhibition in comparison to untreated samples 5 days after infestation.

Anopheles stephensi = Anopheles stephensi (Indian malaria mosquito), dry deposit in 12 well plates, adult females; settings: application rate 200 ppm in ethanol, after 48 h and/or 24 h
Experimental: Example B13: Anopheles stephensi (Indian Malaria Mosquito)
Test solutions, at an application rate of 200 ppm in ethanol, were applied to 12 well tissue culture plates. Once the deposits were dry, five, two to five day old adult female Anopheles stephensi were added to each well, and sustained with a 10% sucrose solution in a cotton wool plug. Assessment of knockdown was made one hour after introduction, and mortality was assessed at 24 and 48 hours after introduction.

Aedes aegypti = Aedes aegypti (yellow fever mosquito), dry deposit in 12 well plates, adult females; settings: application rate 200 ppm in ethanol, after 48 h and/or 24 h
Experimental: Example B12: Aedes aegypti (Yellow Fever Mosquito)
Test solutions, at an application rate of 200 ppm in ethanol, were applied to 12 well tissue culture plates. Once the deposits were dry, five, two to five day old adult female Aedes aegypti were added to each well, and sustained with a 10% sucrose solution in a cotton wool plug. Assessment of knockdown was made one hour after introduction, and mortality was assessed at 24 and 48 hours after introduction.

Tetranychus urticae = Tetranychus urticae (two-spotted spider mite) feeding/contact activity, bean leaf discs; settings: foliar, 192 h, application rate 200 ppm, mixed population (mobile stages), 8 days after infestation
Experimental: Example B10: Tetranychus urticae (Two-Spotted Spider Mite): Feeding/Contact Activity
Bean leaf discs on agar in 24-well microtiter plates were sprayed with aqueous test solutions prepared from 10′000 ppm DMSO stock solutions. After drying the leaf discs were infested with a mite population of mixed ages. The samples were assessed for mortality on mixed population (mobile stages) 8 days after infestation.

CCS(=O)(=O)c1cc(C(F)(F)F)cnc1-c1nc2cc([S+]([O-])C(F)(F)F)ncc2n1C (stereo not shown) [Compound P9, 2-[3-ethylsulfonyl-5-(trifluoromethyl)-2-pyridyl]-3-methyl-6-(trifluoromethylsulfinyl) imidazo[4,5-c]pyridine]
≥ 80%: percent effect (mortality, anti-feeding or growth inhibition) at 12.5 ppm (Spodoptera littoralis [1]) | mortality at 200 ppm [2] | mortality at 24 ppm (Myzus persicae [3]) | mortality at 200 ppm (Bemisia tabaci) | percent control (mortality, anti-feedant effect or growth inhibition) at 200 ppm (Spodoptera littoralis [4]) | percent effect (mortality or growth inhibition) at 200 ppm (Euschistus heros) | mortality at 200 ppm (Thrips tabaci) | mortality at 200 ppm (Myzus persicae [5]) | percent effect (mortality or growth inhibition) at 200 ppm (Diabrotica Balteata) | percent effect (mortality or growth inhibition) at 200 ppm (Plutella xylostella) | pest or weed control at 200 ppm (Anopheles stephensi) | pest or weed control at 200 ppm (Aedes aegypti)

CCS(=O)(=O)c1cc(C(F)(F)F)cnc1-c1nc2cc(SC(F)(F)F)ncc2n1C [Compound P10, 2-[3-ethylsulfonyl-5-(trifluoromethyl)-2-pyridyl]-3-methyl-6-(trifluoromethylsulfanyl)imidazo[4,5-c]pyridine]
≥ 80%: percent effect (mortality, anti-feeding or growth inhibition) at 12.5 ppm (Spodoptera littoralis [1]) | mortality at 200 ppm [2] | mortality at 24 ppm (Myzus persicae [3]) | mortality at 200 ppm (Bemisia tabaci) | percent control (mortality, anti-feedant effect or growth inhibition) at 200 ppm (Spodoptera littoralis [4]) | percent effect (mortality or growth inhibition) at 200 ppm (Euschistus heros) | mortality at 200 ppm (Thrips tabaci) | mortality at 200 ppm (Myzus persicae [5]) | percent effect (mortality or growth inhibition) at 200 ppm (Diabrotica Balteata) | percent effect (mortality or growth inhibition) at 200 ppm (Plutella xylostella) | pest or weed control at 200 ppm (Anopheles stephensi) | pest or weed control at 200 ppm (Aedes aegypti)

CCS(=O)(=O)c1cc(C(F)(F)F)cnc1-c1nc2cc(S(=O)(=O)C(F)(F)F)ncc2n1C [Compound P8, 2-[3-ethylsulfonyl-5-(trifluoromethyl)-2-pyridyl]-3-methyl-6-(trifluoromethylsulfonyl) imidazo[4,5-c]pyridine]
≥ 80%: percent effect (mortality, anti-feeding or growth inhibition) at 12.5 ppm (Spodoptera littoralis [1]) | mortality at 200 ppm [2] | mortality at 24 ppm (Myzus persicae [3]) | mortality at 200 ppm (Bemisia tabaci) | percent control (mortality, anti-feedant effect or growth inhibition) at 200 ppm (Spodoptera littoralis [4]) | percent effect (mortality or growth inhibition) at 200 ppm (Euschistus heros) | mortality at 200 ppm (Thrips tabaci) | mortality at 200 ppm (Myzus persicae [5]) | percent effect (mortality or growth inhibition) at 200 ppm (Diabrotica Balteata) | mortality at 200 ppm (Tetranychus urticae) | percent effect (mortality or growth inhibition) at 200 ppm (Plutella xylostella) | pest or weed control at 200 ppm (Anopheles stephensi) | pest or weed control at 200 ppm (Aedes aegypti)
